According to patent US12257253B2, “Triamterene or nolatrexed for use in the treatment of phenylketonuria” (SOM INNOVATION BIOTECH, S.A., priority 2019, dated 2025):
Structures can show the parent of a compound that is named as a salt. Where two headings read alike, the source gives them in different places.

Experiments:
Arg261Gln (R261Q) PAH [1] = biological target: T1, Arg261Gln (R261Q) PAH (Homo sapiens (Human), UniProt P00439, R261Q); test: Phenylalanine hydroxylase residual protein amount (dot blot, COS-7 lysates); format: cell-based; conditions: COS-7 cells, compound 10 μM (sepiapterin 5 μM), read-out: PAH protein level (immune blot signal) R261Q PAH Mean
Description: (§1) 3. Phenylalanine Hydroxylase Residual Protein Amount
(§2) The analysis of the residual PAH protein amount was based on the method described in Gersting S. W. et al., Human Molecular Genetics, 2010, 19(10), 2039-2049 with modifications.
(§3) Detection of the residual PAH protein amount was performed as a dot blot using the lysates obtained from the cell culture where transiently transfected COS-7 cells (with wild-type PAH or PAH variant) were exposed for 48 h to compounds. The experiment was carried out from the same samples as used for measuring enzyme activities.
(§4) 2 μl of the lysate were dropped onto the nitrocellulose membrane. The membrane was allowed to air dry at room temperature for 30 min followed by 40 min blocking in 5% milk in TBS-Tween (room temperature). The membrane was incubated with the mouse monoclonal primary antibody specific for PAH (Millipore, Cat. No. MAB5278, 1:1000 dilution in 5% milk in TBS-Tween) for overnight at 4° C. Next, the membrane was washed (3×10 min in TBS-Tween) and incubated with the secondary HRP-conjugated antibody (anti-mouse antibody; Santa Cruz Biotechnology, Inc., Cat. No. sc-2005; 1:1000 dilution in 5% milk in TBS-Tween) followed by thorough washing in TBS-Tween (3×10 min) and distilled water (1×10 min). Blots were visualized with Pierce™ ECL substrate (ThermoFisher Scientific, Cat No. 32106) and chemiluminescence was monitored with a DIANA III Imaging system or ChemiDoc™ MP Imaging System (BioRad). To analyze the compound effect on the PAH protein amount densitometry analysis was performed using ImageJ Software.
(§5) The effect of compound on PAH protein amount was calculated from triplicates. As for determination of the enzyme activity the background of the not transfected cells (NT) was subtracted from the transfected cells (NCC or compound treated). In the next step delta of the NCC versus compound treated cells was calculated. Residual protein amount greater than 100% represents an increase in the stability of the enzyme with respect to NCC.

wild-type PAH [2] = biological target: T2, wild-type PAH (Homo sapiens (Human), UniProt P00439); test: as above; format: cell-based; conditions: COS-7 cells, compound 10 μM (sepiapterin 5 μM), read-out: PAH protein level (immune blot signal) WT PAH Mean
Description: as §1, §2, §3, §4, §5

wild-type PAH [3] = biological target: T2, wild-type PAH; test: Thermal stability shift assay (DSF); format: binding; conditions: compound 30 μM (BH4 43 μM); for ΔTm1 WT PAH: shift of transition midpoint 1 vs NCC; for ΔTm2 WT PAH: shift of transition midpoint 2 vs NCC
Source text: (§6) 1. Thermal Stability Shift Assay
(§7) Thórólfsson et al. (Biochemistry, 2002, 41(24), 7573-7585) describe that the thermal denaturation of hPAH occurs in three stages: (i) unfolding of the four regulatory domains, which is responsible for the low-temperature calorimetric transition (ii) unfolding of two (out of the four) catalytic domains, which is responsible for the high-temperature transition; and (iii) irreversible protein denaturation. The most important domain for stabilization is the regulatory domain.
(§8) Thus, to test the compound effect on thermal stability of the target protein a thermal stability shift assay (also called differential scanning fluorimetry (DSF)) was performed [Niesen F. H. et al., Nat Protoc., 2007, 2(9), 2212-2221; Gersting S. W. et al., Human Molecular Genetics, 2010, 19(10), 2039-2049; and Gersting S. W. et al., J. Biol Chem. 2010, 285(40), 30686-30697]. DSF monitors thermal unfolding of proteins in the presence of a fluorescent dye (SYPRO Orange; λexc=465 nm, λem=610 nm) and was performed using a real-time PCR instrument (Applied BioSystems 7000HT Fast Real-Time PCR System). Compounds that increase the midpoints of thermal denaturation (Tm) are considered to bind and stabilize the protein.
(§9) In brief, purified wild-type or Arg261Gln (which is the most frequent mutation responsive to BH4) PAH proteins (diluted in 20 mM NaHEPES, pH 7.0 and 200 mM NaCl, 2 mM DTT to 2 mg/ml) were used at a final concentration of 0.2 mg/ml protein per sample. The compounds were tested at a final concentration of 30 μM. A no compound control (NCC) was used according to the compound solvent at a final concentration of 2% (H2O, DMSO, ethanol, methanol). As a positive control we used the natural cofactor 6R-L-erythro-5,6,7,8-tetrahydrobiopterin (BH4, CAS 69056-38-8) stabilized in 100 mM dithiothreitol (DTT), in a final concentration of 43 μM. To exclude unspecific effects of the compound to the dye, a no protein control (NPC) was added (buffer, compound, dye). The measurement was performed in duplicates and samples were denatured by scanning a temperature range of 20 to 75° C. at a scan rate of 0.5° C./min.
(§10) The data was normalized and the respective Tm values were calculated by bi-phasic equation to determine temperatures at which half denaturation occurred (Software GraphPadPrism). To identify compound specific effects on the thermal stability of the target protein, the reference Tm (NCC) was used to calculate the temperature shift between compound treated and not treated protein (Tm−TmNCC), from duplicates, to provide transition midpoints shifts (ΔTm1 and ΔTm2). Tm1 and Tm2 are the two different transition mid point of the unfolding process of the protein as the tetrameric protein PAH unfolds in two steps due to its domains. A shift in Tm1 of 2° C. reflects a relevant increase in thermal stability on the regulatory domain and, thus, is considered a positive result.

Arg261Gln (R261Q) PAH [4] = biological target: T1, Arg261Gln (R261Q) PAH; test: Thermal stability shift assay (DSF); format: binding; conditions: compound 30 μM (BH4 43 μM); for ΔTm1 R261Q PAH: shift of transition midpoint 1 vs NCC; for ΔTm2 R261Q PAH: shift of transition midpoint 2 vs NCC
Source text: as §6, §7, §8, §9, §10

wild-type PAH [5] = biological target: T2, wild-type PAH; test: Isothermal titration calorimetry; format: binding; conditions: ITC; for Kd / N (stoichiometry) / ΔG / ΔH / −TΔS: 25° C., WT PAH
Source text: 4. Isothermal Titration Calorimetry
Isothermal titration calorimetry (ITC) is a quantitative physical technique used to determine binding affinities of small molecules to proteins or other larger molecules [Freyer M. W. and Lewis E. A., Methods in Cell Biology, 2008, vol. 4, Chapter 4, pages 79-113]. The measurement detects changes of heat generated or absorbed when molecules interact, generate binding kinetics and thermodynamic profile of the molecular interaction. The following parameters are determined: KD (equilibrium dissociation constant), N (stoichiometry of the interaction (mol ligand/mol complex)), ΔH (enthalpy change), ΔG (Gibbs energy), T (temperature) and ΔS (entropy change).
ITC experiments were performed at 25° C. using a MicroCal PEAQ-ITC microcalorimeter (Malvern). PAH proteins were prepared in a HEPES buffer (HEPES 20 mM Hepes, 0.2M NaCl, 1 mM DTT, pH 7.0) containing 5% DMSO, in order to match the final DMSO concentration of the compounds dilutions. The protein concentration used (30 μM) was determined using ultraviolet (UV) absorbance at 280 nm. The compounds ([…]) were prepared using the exact same buffer. Twelve injections of 3 μL of compound/ligand were titrated into the sample cell (containing the protein) over 31 min with a stirring speed of 750 rpm. Data was baseline adjusted by subtracting the background obtained from equivalent injections of compound into the buffer solution. The titration curves were analyzed using MicroCal PEAQ-ITC analytics software (version 1.1.0.1262, Malvern Instruments Ltd.) using a model that assumes a set of identical binding sites where the total heat of the solution is calculated as:
[formula] where n is the number of binding sites, Mt is the total protein concentration in the cell, ΔH is the molar heat of ligand binding, Xt is the total concentration of ligand, and K the binding constant (K=1/KD). The heat released per injection (i), ΔQ(i), is calculated following the equation below, which compensates for the volume that is added in each injection (ΔVi). V0 is the initial volume in the cell.
The parameters, n, K, and ΔH are determined using non-linear square fitting using the Levenberg-Marquardt algorithm.

T1 sequence (P00439 whole entry R261Q): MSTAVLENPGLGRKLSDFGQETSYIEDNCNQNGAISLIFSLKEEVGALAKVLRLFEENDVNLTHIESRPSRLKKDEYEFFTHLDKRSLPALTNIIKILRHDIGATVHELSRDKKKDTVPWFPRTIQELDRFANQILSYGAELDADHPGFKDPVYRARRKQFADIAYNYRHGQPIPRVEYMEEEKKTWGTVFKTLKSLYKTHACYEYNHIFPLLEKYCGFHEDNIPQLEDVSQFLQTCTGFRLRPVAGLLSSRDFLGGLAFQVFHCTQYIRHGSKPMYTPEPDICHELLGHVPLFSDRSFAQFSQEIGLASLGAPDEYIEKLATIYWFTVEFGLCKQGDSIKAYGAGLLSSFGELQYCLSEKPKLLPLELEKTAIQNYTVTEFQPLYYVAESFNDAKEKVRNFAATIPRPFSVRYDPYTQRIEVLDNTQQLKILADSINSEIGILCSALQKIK
T2 sequence (P00439 whole entry): as the sequence (P00439 whole entry R261Q) above, with Q261R counted along it

Nc1cc(N2CCCCC2)nc(N)[n+]1[O-] [Minoxidil, 2,6-diamino-4-(piperidin-1-yl)pyrimidine 1-oxide] gave a PAH protein level (% of control) at 10 µM (Arg261Gln (R261Q) PAH [1]; 48 h) of 96.1% and a PAH protein level (% of control) at 10 µM (wild-type PAH [2]; 48 h) of 127%.
For CC(C)[C@H](N)C(=O)OCC(CO)OCn1cnc2c(=O)[nH]c(N)nc21 (stereo partly drawn) [Valganciclovir HCl, [2-[(2-amino-6-oxo-3H-purin-9-yl)methoxy]-3-hydroxypropyl] (2S)-2-amino-3-methylbutanoate], the PAH protein level (% of control) at 10 µM (Arg261Gln (R261Q) PAH [1]; COS-7, 48 h) was 141% and the PAH protein level (% of control) at 10 µM (wild-type PAH [2]; COS-7, 48 h) was 138%.
With C=CCn1c(=O)n([C@@H]2O[C@H](CO)C(O)C2O)c2nc(N)[nH]c(=O)c21 (stereo in doubt) [Loxoribine, 2-amino-9-[(2R,3R,4S,5R)-3,4-dihydroxy-5-(hydroxymethyl)oxolan-2-yl]-7-prop-2-enyl-3H-purine-6,8-dione] the “ΔTm1 WT PAH” value (wild-type PAH [3]) was 3.57 °C.
For CN1CCc2cc3c(cc2C1O)OCO3 (centres unmarked) [Hydrastinine HCl, 6-methyl-7,8-dihydro-5H-[1,3]dioxolo[4,5-g]isoquinolin-5-ol], the “ΔTm1 R261Q PAH” value (Arg261Gln (R261Q) PAH [4]) was 2.46 °C, the “ΔTm2 R261Q PAH” value (Arg261Gln (R261Q) PAH [4]) was 0.04 °C and the “ΔTm1 WT PAH” value (wild-type PAH [3]) was −0.49 °C. For the same compound, the “ΔTm2 WT PAH” value (wild-type PAH [3]) was 6.10 °C, the PAH protein level (% of control) at 10 µM (Arg261Gln (R261Q) PAH [1]; 48 h) was 141% and the PAH protein level (% of control) at 10 µM (wild-type PAH [2]; 48 h) was 164%. For the same compound, the Kd (wild-type PAH [5]) was 2.99 ± 3.2 µM, the “N (stoichiometry)” value (wild-type PAH [5]) was 1.310 ± 0.2 sites and the ΔG (wild-type PAH [5]) was -7.55 kcal/mol. The ΔH (wild-type PAH [5]) was 2.29 ± 0.55 kcal/mol, the “−TΔS” value (wild-type PAH [5]) was -9.82 kcal/mol and the “Kd (in words)” value (wild-type PAH [5]; recombinant PAH) was “low micromolar range”.
CCc1cccc2cc(C(O)CNC(C)(C)C)oc12 (centres unmarked) [S-Bufuralol HCl, 2-(tert-butylamino)-1-(7-ethyl-1-benzofuran-2-yl)ethan-1-ol] was tested, and the “ΔTm1 R261Q PAH” value (Arg261Gln (R261Q) PAH [4]) was 3.73 °C, the “ΔTm2 R261Q PAH” value (Arg261Gln (R261Q) PAH [4]) was 0.92 °C and the “ΔTm1 WT PAH” value (wild-type PAH [3]) was 1.05 °C. The “ΔTm2 WT PAH” value (wild-type PAH [3]) was 0.24 °C.
Work on CC(C)[C@H](N)C(=O)OCCOCn1cnc2c(=O)[nH]c(N)nc21 [Valacyclovir HCl, 2-[(2-amino-6-oxo-3H-purin-9-yl)methoxy]ethyl (2S)-2-amino-3-methylbutanoate] yielded a PAH protein level (% of control) at 10 µM (Arg261Gln (R261Q) PAH [1]; 48 h) of 104% and a PAH protein level (% of control) at 10 µM (wild-type PAH [2]; 48 h) of 146%.
CCc1cccc2cc(C(O)CNC(C)(C)C)oc12 (centres unmarked) [Bufuralol HCl, 2-(tert-butylamino)-1-(7-ethyl-1-benzofuran-2-yl)ethan-1-ol] was tested, and the “ΔTm1 R261Q PAH” value (Arg261Gln (R261Q) PAH [4]) was 2.24 °C, the “ΔTm1 WT PAH” value (wild-type PAH [3]) was 1.62 °C and the “ΔTm2 WT PAH” value (wild-type PAH [3]) was −0.09 °C.
C[C@H](O)[C@H](O)[C@H]1CNc2[nH]c(N)nc(=O)c2N1 [BH4, 6R-L-erythro-5,6,7,8-tetrahydrobiopterin] was tested, and the “ΔTm1 R261Q PAH” value (Arg261Gln (R261Q) PAH [4]) was 2.54 °C, the “ΔTm2 R261Q PAH” value (Arg261Gln (R261Q) PAH [4]) was 12.17 °C and the “ΔTm1 WT PAH” value (wild-type PAH [3]) was 0.20 °C. For the same compound, the “ΔTm2 WT PAH” value (wild-type PAH [3]) was 1.88 °C, the Kd (wild-type PAH [5]) was 40.7 ± 14.1 µM and the “N (stoichiometry)” value (wild-type PAH [5]) was 0.936 ± 0.3 sites. For the same compound, the ΔG (wild-type PAH [5]) was -6 kcal/mol, the ΔH (wild-type PAH [5]) was -17.9 ± 7.91 kcal/mol and the “−TΔS” value (wild-type PAH [5]) was 11.9 kcal/mol.
With CCC[S+]([O-])c1ccc2[nH]c(NC(=O)OC)nc2c1 (centres unmarked) [Ricobendazole, methyl [5-(propane-1-sulfinyl)-1H-benzoimidazol-2-yl]-carbamate] the “ΔTm1 R261Q PAH” value (Arg261Gln (R261Q) PAH [4]) was 2.19 °C, the “ΔTm2 R261Q PAH” value (Arg261Gln (R261Q) PAH [4]) was 3.39 °C and the “ΔTm1 WT PAH” value (wild-type PAH [3]) was −0.48 °C. The “ΔTm2 WT PAH” value (wild-type PAH [3]) was 2.57 °C, the PAH protein level (% of control) at 10 µM (Arg261Gln (R261Q) PAH [1]; 48 h) was 104% and the PAH protein level (% of control) at 10 µM (wild-type PAH [2]; 48 h) was 154%.
